These results are taken from ChEMBL document CHEMBL4823254, “Tetrahydroquinoline-Capped Histone Deacetylase 6 Inhibitor SW-101 Ameliorates Pathological Phenotypes in a Charcot-Marie-Tooth Type 2A Mouse Model” (J Med Chem, 2021).

Calls of active or inactive are those of the source.

One data set addresses Histone deacetylase 4 (Homo sapiens, UniProt P56524). In words: Inhibition of recombinant human HDAC4 using Boc-Lys(TFA)-AMC as substrate preincubated for 10 mins followed by substrate addition and measured after 30 mins by fluorescence-based assay.
Another data set deals with T1, Histone deacetylase 11 (Homo sapiens, UniProt Q96DB2).
T1 sequence (Q96DB2 whole entry): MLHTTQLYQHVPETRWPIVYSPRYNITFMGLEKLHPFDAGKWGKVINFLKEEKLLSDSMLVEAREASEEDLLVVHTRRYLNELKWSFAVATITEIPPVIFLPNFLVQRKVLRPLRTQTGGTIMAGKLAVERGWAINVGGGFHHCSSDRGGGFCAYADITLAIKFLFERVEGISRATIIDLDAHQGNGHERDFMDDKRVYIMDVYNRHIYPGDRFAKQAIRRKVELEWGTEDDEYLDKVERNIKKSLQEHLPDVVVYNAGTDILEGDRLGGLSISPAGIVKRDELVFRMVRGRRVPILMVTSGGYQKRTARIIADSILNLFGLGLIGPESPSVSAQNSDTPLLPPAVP
Description: Inhibition of recombinant human HDAC11 expressed in HEK293T/17 cells using Boc-Lys(TFA)-AMC as substrate preincubated for 10 mins followed by substrate addition and measured after 30 mins by fluorescence-based assay.

A short description of data set [1]: Half life in mouse plasma. Format: ADME, cell-free.
Data set [2] in a line: Genotoxicity in Salmonella typhimurium TA1537 at 5 to 100 uM in presence of liver S9 fraction by Ames test. In kind it is toxicity. The settings on record: salmonella enterica subsp. enterica serovar typhimurium, s9, 100 µM; dose 5-100 µM.
The target in data set [3] is T2, Protein deacetylase HDAC6 (Mus musculus) (UniProt Q9Z2V5).
T2 sequence (whole entry): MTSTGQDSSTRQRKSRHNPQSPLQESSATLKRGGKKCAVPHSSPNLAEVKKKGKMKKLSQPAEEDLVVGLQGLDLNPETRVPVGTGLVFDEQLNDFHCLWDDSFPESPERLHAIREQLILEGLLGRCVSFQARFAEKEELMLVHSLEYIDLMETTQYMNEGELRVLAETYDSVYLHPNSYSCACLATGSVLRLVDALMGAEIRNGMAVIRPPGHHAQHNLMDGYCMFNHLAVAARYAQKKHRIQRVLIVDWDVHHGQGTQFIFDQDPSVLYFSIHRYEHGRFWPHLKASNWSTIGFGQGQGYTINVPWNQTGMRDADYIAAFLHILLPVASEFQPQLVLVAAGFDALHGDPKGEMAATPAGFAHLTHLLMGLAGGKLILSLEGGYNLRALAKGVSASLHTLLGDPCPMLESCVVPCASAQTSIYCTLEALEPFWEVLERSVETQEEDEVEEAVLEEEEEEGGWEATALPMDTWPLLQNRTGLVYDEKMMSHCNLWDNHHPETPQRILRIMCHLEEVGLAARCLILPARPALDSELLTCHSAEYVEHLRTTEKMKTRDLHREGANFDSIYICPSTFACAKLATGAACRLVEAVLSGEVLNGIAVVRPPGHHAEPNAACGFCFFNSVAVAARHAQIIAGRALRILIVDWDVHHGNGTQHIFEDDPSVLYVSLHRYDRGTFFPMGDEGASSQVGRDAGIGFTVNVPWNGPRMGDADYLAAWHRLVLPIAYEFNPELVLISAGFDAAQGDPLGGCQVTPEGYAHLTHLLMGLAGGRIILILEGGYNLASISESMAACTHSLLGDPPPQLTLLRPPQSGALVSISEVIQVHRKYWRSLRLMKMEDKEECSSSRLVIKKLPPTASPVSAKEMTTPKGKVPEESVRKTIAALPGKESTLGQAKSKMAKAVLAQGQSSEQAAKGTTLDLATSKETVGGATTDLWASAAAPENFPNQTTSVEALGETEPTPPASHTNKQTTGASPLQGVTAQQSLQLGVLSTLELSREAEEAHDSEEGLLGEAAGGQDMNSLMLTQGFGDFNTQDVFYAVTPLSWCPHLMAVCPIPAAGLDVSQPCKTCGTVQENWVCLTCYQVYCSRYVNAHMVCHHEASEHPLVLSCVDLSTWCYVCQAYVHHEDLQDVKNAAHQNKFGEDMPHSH
In words: In vivo inhibition of HDAC6 in wild type mouse assessed as increase in alpha-tubulin acetylation in sciatic nerve tissue at 10 to 20 mg/kg, ip measured after 6 hrs by immunoblot analysis relative to control. In kind it is functional, organism-based. The arrangement: scale not given: the % may be the effect or the level left. Conditions: dose 10-20 mg/kg. Background: A western blot detects proteins with antibodies after separation by electrophoresis.

Data set [4] relates to Mus musculus. In words: Neuroprotective activity in hMFN2-induced CMT2A transgenic mouse model assessed as increase in motor performance at 20 mg/kg, ip qd administered for 26 weeks when treated prior with compound dissolved in PBS/PEG400/Tween80/EtOH (50/35/10/5) wt% as vehicle by rotarod test. In kind it is functional, organism-based. Background: Falling from the rotarod earlier than controls is read as motor impairment.

Data set [5] deals with Mus musculus. Description: Neuroprotective activity in hMFN2-induced CMT2A transgenic mouse model assessed as increase in paw withdrawal latency at 20 mg/kg, ip qd administered when treated prior with compound dissolved in PBS/PEG400/Tween80/EtOH (50/35/10/5) wt% as vehicle by von Frey test. Format: functional, organism-based.
Another data set deals with Histone deacetylase 1 (Homo sapiens, UniProt Q13547).
The next data set has as its target T3, Histone deacetylase 8 (Homo sapiens, UniProt Q9BY41).
T3 sequence (Q9BY41 whole entry): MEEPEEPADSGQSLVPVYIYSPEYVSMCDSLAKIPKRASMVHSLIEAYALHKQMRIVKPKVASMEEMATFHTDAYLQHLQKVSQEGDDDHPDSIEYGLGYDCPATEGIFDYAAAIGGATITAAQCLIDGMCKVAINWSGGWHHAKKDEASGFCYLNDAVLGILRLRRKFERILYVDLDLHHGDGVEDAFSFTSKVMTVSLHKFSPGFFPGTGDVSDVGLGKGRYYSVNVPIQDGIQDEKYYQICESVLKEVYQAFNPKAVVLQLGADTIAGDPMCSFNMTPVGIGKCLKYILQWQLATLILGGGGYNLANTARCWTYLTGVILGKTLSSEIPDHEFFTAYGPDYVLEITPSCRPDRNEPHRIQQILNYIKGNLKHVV

Sequence of Histone deacetylase 4 (P56524 whole entry): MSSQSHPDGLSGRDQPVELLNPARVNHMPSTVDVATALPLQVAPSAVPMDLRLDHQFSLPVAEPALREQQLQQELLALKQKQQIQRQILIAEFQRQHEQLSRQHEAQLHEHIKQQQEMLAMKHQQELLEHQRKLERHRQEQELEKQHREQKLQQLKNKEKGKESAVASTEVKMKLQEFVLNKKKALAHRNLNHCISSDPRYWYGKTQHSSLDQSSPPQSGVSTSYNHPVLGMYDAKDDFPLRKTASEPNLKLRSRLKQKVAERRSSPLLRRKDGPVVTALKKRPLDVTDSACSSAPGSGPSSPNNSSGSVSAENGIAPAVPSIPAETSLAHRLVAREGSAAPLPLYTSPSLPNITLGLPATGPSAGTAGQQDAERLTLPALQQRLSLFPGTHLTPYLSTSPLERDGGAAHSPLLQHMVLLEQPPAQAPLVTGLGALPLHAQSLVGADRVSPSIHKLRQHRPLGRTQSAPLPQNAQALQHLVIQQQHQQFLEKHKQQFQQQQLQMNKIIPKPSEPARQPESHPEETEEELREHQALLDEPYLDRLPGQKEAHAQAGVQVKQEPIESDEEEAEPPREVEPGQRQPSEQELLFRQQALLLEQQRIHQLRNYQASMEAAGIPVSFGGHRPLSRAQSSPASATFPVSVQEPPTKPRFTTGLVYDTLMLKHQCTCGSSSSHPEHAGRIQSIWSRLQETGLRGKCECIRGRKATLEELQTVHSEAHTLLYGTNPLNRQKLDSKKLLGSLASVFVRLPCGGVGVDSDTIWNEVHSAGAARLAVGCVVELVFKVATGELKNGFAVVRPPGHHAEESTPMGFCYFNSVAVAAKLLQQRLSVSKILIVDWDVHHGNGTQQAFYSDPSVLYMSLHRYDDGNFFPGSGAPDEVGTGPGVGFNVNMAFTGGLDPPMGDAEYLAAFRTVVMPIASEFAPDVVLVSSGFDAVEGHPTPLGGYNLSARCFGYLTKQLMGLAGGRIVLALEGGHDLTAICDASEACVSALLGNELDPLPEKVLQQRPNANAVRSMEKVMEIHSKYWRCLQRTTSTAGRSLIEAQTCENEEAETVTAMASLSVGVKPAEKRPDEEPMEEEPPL
Sequence of Histone deacetylase 1 (Q13547 whole entry): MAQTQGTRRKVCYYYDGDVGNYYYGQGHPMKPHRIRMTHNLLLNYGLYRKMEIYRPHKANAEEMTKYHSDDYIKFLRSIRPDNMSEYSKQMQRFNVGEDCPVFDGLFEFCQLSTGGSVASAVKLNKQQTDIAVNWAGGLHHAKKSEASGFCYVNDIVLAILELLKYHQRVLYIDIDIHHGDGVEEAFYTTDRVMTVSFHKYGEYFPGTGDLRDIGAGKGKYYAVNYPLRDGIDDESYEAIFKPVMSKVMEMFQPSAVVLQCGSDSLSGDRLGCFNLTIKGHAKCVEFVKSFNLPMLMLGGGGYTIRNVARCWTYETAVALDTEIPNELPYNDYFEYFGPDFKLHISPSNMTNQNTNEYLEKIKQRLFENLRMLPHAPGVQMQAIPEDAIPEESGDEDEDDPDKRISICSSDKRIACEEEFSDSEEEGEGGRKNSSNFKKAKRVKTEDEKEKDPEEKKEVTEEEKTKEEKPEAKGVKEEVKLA
Description for Histone deacetylase 8: Inhibition of recombinant human HDAC8 using Boc-Lys(TFA)-AMC as substrate preincubated for 10 mins followed by substrate addition and measured after 30 mins by fluorescence-based assay

`NC(=O)c1ccc2c(c1)CCCN2Cc1ccc(C(=O)NO)cc1`: the IC50 (commonly the concentration needed to halve the response being measured) at Histone deacetylase 4 worked out at 454 nM; at Histone deacetylase 11 it was 5.31 µM; against Histone deacetylase 1 it was 356 nM; at Histone deacetylase 8, 651 nM. Besides, in data set [1], the half-life (commonly the time needed for the level to fall by half in the phase considered) worked out at 127 min. For the same compound, the Activity entry is “Non-Toxic” in data set [2] and 150% in data set [3]. Moreover, the outcome with Mus musculus [4] and with Mus musculus [5] was Active.
